Patent publication US20220370424A1 (Deciphera Pharmaceuticals, LLC, priority 2017, published 2022)

What was measured:
[1] = tested on: circulating glioblastoma tumor cells (PDGFRα+/GFAP+); test: Phase 1 study: circulating glioblastoma tumor cells (PDGFRα+/GFAP+ CTC) in whole blood; type: in vivo, human; conditions: GBM patient, 20 mg BID
Description: (§1) Preliminary antitumor activity was measured by CT scans according to RANO (Revised Assessment in Neuro-Oncology) criteria every other cycle followed by after every cycle (every 56 or 84 days). Pharmacodynamic effects […] were measured as a reduction in circulating tumor cells (CTC). Whole blood was enriched for CTCs in an OncoQuick tube. The CTC layer was incubated with an adenovirus that replicates and expresses GFP in cells with high levels of telomerase (Oncolys BioPharma Inc.). Cells were then incubated with fluorescently-labeled antibodies, fixed, and stained with DAPI. Cells positive for DAPI, GFP, PDGFRα and GFAP fluorescence were counted as circulating glioblastoma tumor cells using a BioTek Cytation 5 imager. Glial fibrillary acidic protein (GFAP) is unambiguously attributed to glial cells.
The relevance of PDGFRα amplification has been assessed in pediatric and adult high-grade astrocytomas (HGA) including glioblastomas. […] Dunn et al., provide additional evidence that PDGFRα amplification is a driver genomic alteration for GBM (Dunn et al., Genes Dev. (2012) 26(8):756-84). […] The frequency dropped in cycles 13 (52 weeks) and 17 (68 weeks) to 1.11 and 0.58 CTCs/mL, respectively.

[2] = tested on: PDGFRα D842V mutated Gastrointestinal Stromal Tumors (GIST); test: Phase 1 study DCC-2618-01-001: antitumor activity (RECIST 1.1) in GIST patients with PDGFRα D842V mutation; type: in vivo, human; conditions: GIST patient
Description: (§2) Preliminary antitumor activity was measured by CT scans according to RECIST 1.1 every other cycle (every 56 days). Pharmacodynamics effects were measured as a reduction in mutation allele frequency (MAF) in plasma cell-free (cf) DNA and analyzed with Guardant 360 v2.9 or v2.10 (Guardant Health, Redwood City, Calif.), a. 73-gene next generation sequencing panel.
All patients had to have progressive disease on standard of care treatment and would rapidly progress without treatment. Three patients with PDGFRα-mutated Gastrointestinal Stromal Tumors (GIST) were enrolled in the study. The PDGFRα D842V mutation was identified in each patient by tumor biopsy. Based on non-clinical data and the available pharmacokinetic data from study DCC-2618-01-001, dose levels of >50 mg BID (daily dose equivalent 100 mg) were sufficient to lead to tumor control i.e. growth arrest in these advanced sarcomas of PDGFRα D842V mutation-dependent tumors in patients suffering from GIST. Out of 3 evaluable patients, 2 were enrolled at or above target-effective dose levels (150 mg QD and 100 mg BID). […] The patient at 100 mg BID is now in Cycle 11 (>40 weeks) and continues to benefit from treatment. […] The 2 patients had 1 and 3 prior treatments with Tyrosine Kinase Inhibitors, respectively.

[3] = tested on: PDGFRα amplified glioblastoma; test: Phase 1 study: antitumor activity (RANO) in glioblastoma patient with PDGFRα amplification; type: in vivo, human; conditions: GBM patient, 20 mg BID oral
Description: as §1
All patients had to have progressive disease on standard of care treatment and would rapidly progress without treatment. One patient with PDGFRα amplified glioblastoma (GBM; 6× amplified, 12 copies) was enrolled in the study at the 20 mg BID dose level. The patient had been treated initially with combined radio-chemotherapy followed by temozolomide alone and progressed after 3 months. The GBM patient is now in cycle 19 (>17 months on study) and continues to benefit from treatment. […] FIG. 1B provided an additional proof of the tumor reduction after cycle 9.

[4] = tested on: PDGFRα D842V mutation in plasma cell-free DNA; test: Phase 1 study: PDGFRα D842V mutation allele frequency in plasma cfDNA (Guardant 360); type: in vivo, human; conditions: GIST patient at 100 mg BID
Description: as §2
To date, cfDNA follow up data for PDGFRα D842V mutation allele frequency in plasma are available for the patient at 100 mg BID only. The PDGFRα D842V mutation was not detected by cfDNA at baseline, but at Cycle 3 Day 1 (8 weeks) post-treatment a frequency of 0.59% was detected.

[5] = Phase 1 study: plasma pharmacokinetics, Cycle 1 Day 15, after oral Compound A; type: in vivo, human; conditions: patients, Cycle 1 Day 15 steady state; for Cmax: human, po, 150 mg, Compound A Cmax (mean)
Text: Phoenix WinNonlin version 6.3 was used to analyze plasma concentration versus time data for calculation of standard noncompartmental PK parameters. All PK calculations were completed using the nominal sample collection times.

[6] = target: T1, recombinant wild type PDGFRβ (Homo sapiens, UniProt P09619); test: Biochemical assay for PDGFRB (coupled pyruvate kinase/lactate dehydrogenase); conditions: 0.5 mM ATP, 9 nM PDGFRB; read-out: IC50, inhibition of recombinant wild type PDGFRβ enzyme activity
T1 construct: purchased DeCode Biostructures, Bainbridge Island, Wash
Description: (§3) The reaction rate was calculated using the 2-3 h time frame.

[7] = target: T2, recombinant D842V mutant PDGFRα (Homo sapiens, UniProt P16234, D842V); test: Biochemical assay for PDGFRα D842V (coupled pyruvate kinase/lactate dehydrogenase); conditions: 0.5 mM ATP, 3 nM PDGFRA D842V; read-out: IC50, inhibition of recombinant D842V mutant PDGFRα enzyme activity
T2 construct: His (N); purchased Invitrogen, Carlsbad, Calif
Description: as §3

[8] = target: T3, D842V mutant PDGFRα expressed in BaF3 cells (Homo sapiens, UniProt P16234, D842V); test: BaF3 PDGFRα D842V Western blot, phospho-PDGFRα (Tyr754); type: cell-based; conditions: 4 hours, read-out: IC50, inhibition of phosphorylation of D842V mutant PDGFRα expressed in BaF3 cells
T3 construct: expressed in transfected cells; host or cells: BaF3 cells (IL-3 independent selection)
Text: (§4) BaF3 cells were transfected with a construct encoding D842V PDGFRα and selected for IL-3 independence.
(§5) Cells were washed with PBS, then lysed. Cell lysates were separated by SDS-PAGE and transferred to PVDF. Phospho-PDGFRα (Tyr754) was detected using an antibody from Cell Signaling Technology (Beverly, Mass.), ECL Plus detection reagent (GE Healthcare, Piscataway, N.J.) and a Molecular Devices Storm 840 phosphorimager in fluorescence mode. Blots were stripped and probed for total PDGFRα using an antibody from Cell Signaling Technology (Beverly, Mass.). IC50 values were calculated using Prism software (GraphPad, San Diego, Calif.).

[9] = tested on: FIP1L1-PDGFRα fusion in EOL-1 cells; test: EOL-1 cell proliferation assay (resazurin); type: cell-based; conditions: Homo sapiens, EOL1; 67 h + 5 h resazurin; read-out: IC50, inhibition of proliferation of FIP1L1-PDGFRα fusion in EOL-1 cells
Description: (§6) A serial dilution of test compound was dispensed into a 96-well black clear bottom plate (Corning, Corning, N.Y.). Ten thousand cells were added per well in 200 μL complete growth medium. […] Plates were read on a Synergy2 reader (Biotek, Winooski, Vt.) using an excitation of 540 nm and an emission of 600 nm. Data was analyzed using Prism software (GraphPad, San Diego, Calif.) to calculate IC50 values.

[10] = tested on: D842V mutant PDGFRα BaF3 cells; test: BaF3 PDGFRα D842V cell proliferation assay (resazurin); type: cell-based; conditions: Mus musculus, 67 h + 5 h resazurin, read-out: IC50, inhibition of proliferation of D842V mutant PDGFRα BaF3 cells
Description: as §4, §6

[11] = tested on: FIP1L1-PDGFRα fusion in EOL-1 cells; test: EOL-1 Western blot, phospho-PDGFRα (Tyr754); type: cell-based; conditions: Homo sapiens, EOL1, 4 hours, read-out: IC50, inhibition of phosphorylation of FIP1L1-PDGFRα fusion in EOL-1 cells
Description: as §5

[12] = target: T4, recombinant wild type PDGFRα (Homo sapiens, UniProt P16234); test: Biochemical assay for PDGFRα (coupled pyruvate kinase/lactate dehydrogenase); conditions: 0.5 mM ATP, 4.8 nM PDGFRA; read-out: IC50, inhibition of recombinant wild type PDGFRα enzyme activity
T4 construct: purchased DeCode Biostructures, Bainbridge Island, Wash
T4 sequence (P16234 with tags, fused parts or gaps): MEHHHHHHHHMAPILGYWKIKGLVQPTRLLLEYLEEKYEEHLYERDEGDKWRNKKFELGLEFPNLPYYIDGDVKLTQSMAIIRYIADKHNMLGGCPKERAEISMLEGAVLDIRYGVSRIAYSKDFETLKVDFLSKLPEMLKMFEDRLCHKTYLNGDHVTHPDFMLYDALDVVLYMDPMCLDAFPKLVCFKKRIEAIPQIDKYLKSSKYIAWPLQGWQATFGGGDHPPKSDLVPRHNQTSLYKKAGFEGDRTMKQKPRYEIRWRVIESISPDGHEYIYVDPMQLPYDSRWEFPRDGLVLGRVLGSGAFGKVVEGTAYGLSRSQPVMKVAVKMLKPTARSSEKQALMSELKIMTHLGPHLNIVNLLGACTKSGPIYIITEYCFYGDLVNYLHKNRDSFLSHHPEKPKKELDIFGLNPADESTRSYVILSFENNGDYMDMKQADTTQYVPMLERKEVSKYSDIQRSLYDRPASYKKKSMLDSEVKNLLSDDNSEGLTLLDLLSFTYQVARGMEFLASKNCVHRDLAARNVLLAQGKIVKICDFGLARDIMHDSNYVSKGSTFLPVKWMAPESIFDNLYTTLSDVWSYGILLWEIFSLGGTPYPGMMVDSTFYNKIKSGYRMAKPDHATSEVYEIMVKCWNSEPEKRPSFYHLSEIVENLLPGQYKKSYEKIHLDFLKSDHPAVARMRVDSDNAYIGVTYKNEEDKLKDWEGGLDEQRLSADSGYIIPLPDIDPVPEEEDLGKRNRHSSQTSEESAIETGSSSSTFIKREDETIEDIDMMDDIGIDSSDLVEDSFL
Description: Inhibition of PDGFRA was measured after adding serial diluted test compound (final assay concentration of 1% DMSO). A decrease in absorption at 340 nm was monitored continuously for 6 hours at 30° C. on a multi-mode microplate reader (BioTek, Winooski, Vt.). The reaction rate was calculated using the 1-2 h time frame. The reaction rate at each concentration of compound was converted to percent inhibition using controls (i.e. reaction with no test compound and reaction with a known inhibitor) and IC50 values were calculated by fitting a four-parameter sigmoidal curve to the data using Prism (GraphPad, San Diego, Calif.).

T1 sequence (P09619 with tags, fused parts or gaps N1019K): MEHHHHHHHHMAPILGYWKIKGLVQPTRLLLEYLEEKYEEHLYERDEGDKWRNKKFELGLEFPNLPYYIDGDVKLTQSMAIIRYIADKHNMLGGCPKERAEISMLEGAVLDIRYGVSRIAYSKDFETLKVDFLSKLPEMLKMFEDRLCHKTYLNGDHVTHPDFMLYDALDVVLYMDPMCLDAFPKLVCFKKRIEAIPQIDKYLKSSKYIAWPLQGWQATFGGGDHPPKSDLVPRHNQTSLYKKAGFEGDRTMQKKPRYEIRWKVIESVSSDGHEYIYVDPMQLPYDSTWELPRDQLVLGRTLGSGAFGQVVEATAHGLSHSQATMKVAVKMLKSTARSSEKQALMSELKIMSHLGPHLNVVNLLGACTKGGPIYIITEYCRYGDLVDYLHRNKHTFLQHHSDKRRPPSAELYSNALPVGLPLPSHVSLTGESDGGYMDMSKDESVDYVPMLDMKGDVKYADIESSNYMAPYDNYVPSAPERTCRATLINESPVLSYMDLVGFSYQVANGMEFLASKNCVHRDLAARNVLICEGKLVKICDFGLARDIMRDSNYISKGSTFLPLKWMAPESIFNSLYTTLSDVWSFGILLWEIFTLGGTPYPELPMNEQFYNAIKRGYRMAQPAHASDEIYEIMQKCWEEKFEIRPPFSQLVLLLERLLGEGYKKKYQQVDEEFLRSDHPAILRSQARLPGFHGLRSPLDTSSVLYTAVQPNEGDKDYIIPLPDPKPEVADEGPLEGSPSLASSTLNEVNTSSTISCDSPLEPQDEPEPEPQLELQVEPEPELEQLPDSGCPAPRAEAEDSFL
T2 sequence (P16234 with tags, fused parts or gaps D842V): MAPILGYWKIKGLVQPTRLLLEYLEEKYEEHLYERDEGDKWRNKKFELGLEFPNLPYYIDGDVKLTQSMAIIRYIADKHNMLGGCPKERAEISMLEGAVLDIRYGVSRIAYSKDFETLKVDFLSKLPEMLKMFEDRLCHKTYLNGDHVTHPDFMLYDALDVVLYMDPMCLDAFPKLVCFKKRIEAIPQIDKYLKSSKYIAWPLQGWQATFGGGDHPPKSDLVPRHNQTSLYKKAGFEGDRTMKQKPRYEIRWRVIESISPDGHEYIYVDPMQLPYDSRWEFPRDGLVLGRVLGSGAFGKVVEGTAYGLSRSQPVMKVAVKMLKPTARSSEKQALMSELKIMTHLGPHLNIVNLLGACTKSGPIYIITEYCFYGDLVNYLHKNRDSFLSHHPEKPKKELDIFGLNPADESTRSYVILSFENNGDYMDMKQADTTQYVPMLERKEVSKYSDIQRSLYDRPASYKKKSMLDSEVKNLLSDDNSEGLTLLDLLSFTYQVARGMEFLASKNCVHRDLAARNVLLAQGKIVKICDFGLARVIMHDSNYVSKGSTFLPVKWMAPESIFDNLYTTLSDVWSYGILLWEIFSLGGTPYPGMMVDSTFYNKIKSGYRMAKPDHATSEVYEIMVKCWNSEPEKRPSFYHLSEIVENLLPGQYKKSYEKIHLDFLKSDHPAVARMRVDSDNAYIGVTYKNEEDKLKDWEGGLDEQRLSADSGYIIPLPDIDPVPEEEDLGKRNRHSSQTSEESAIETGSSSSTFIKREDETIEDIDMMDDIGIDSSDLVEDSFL
T3 sequence (P16234 24-1089 D842V): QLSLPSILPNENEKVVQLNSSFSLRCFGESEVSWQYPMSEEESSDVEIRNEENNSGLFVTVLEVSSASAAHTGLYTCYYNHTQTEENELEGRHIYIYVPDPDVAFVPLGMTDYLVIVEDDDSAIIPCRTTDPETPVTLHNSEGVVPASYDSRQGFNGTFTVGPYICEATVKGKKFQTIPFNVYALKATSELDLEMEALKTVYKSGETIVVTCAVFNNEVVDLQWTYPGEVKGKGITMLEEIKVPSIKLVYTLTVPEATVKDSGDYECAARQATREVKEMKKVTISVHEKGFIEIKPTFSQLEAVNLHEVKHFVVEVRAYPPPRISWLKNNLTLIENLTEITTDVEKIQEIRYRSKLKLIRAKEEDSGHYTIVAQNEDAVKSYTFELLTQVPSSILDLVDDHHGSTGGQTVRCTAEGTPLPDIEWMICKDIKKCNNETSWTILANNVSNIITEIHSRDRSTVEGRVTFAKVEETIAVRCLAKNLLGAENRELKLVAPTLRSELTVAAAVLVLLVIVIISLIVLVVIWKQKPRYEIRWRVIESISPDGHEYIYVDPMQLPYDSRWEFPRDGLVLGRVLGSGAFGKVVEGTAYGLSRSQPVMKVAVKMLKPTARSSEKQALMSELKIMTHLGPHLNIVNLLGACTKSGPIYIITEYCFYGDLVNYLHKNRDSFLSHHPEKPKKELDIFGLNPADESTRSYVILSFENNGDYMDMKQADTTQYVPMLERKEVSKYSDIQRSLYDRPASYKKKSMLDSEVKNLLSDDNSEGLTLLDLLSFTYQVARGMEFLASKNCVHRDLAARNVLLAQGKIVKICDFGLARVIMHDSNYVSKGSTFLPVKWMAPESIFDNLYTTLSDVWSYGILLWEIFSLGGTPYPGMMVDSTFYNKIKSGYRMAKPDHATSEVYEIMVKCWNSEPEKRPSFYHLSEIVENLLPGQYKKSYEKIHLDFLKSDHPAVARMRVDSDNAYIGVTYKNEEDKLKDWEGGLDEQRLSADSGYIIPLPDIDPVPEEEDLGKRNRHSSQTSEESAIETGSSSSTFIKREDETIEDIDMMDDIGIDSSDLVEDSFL

For `CCn1c(=O)c(-c2cc(NC(=O)Nc3ccccc3)c(F)cc2Br)cc2cnc(NC)cc21` [Compound A, 1-[4-bromo-5-[1-ethyl-7-(methylamino)-2-oxo-1,2-dihydro-1,6-naphthyridin-3-yl]-2-fluorophenyl]-3-phenylurea], the “Frequency of double positive CTCs (PDGFRα+/GFAP+)” value (“Frequency of double positive CTCs” below) ([1]; cycle 7 (28 weeks)) was 2.22 CTCs/mL, the “Frequency of double positive CTCs” value ([1]; cycle 13 (52 weeks)) was 1.11 CTCs/mL and the “Frequency of double positive CTCs” value ([1]; cycle 17 (68 weeks)) was 0.58 CTCs/mL. The Clinical outcome ([2]; 30 mg BID oral, cycles of 28 days) was “progressed after 2 treatment cycles”, the “Time on treatment with continued benefit” value ([2]; 100 mg BID oral, Cycle 11) was > 40 weeks and the “Tumor assessment according to RECIST 1.1” value ([2]; 100 mg BID oral, most recent assessment) was “Stable Disease”. The Tumor reduction ([2]; 150 mg QD oral) was “some tumor reduction observed”, the Time on treatment ([2]; 150 mg QD oral, Cycle 6) was > 20 weeks and the “Tumor assessment per RECIST” value ([2]; 150 mg QD oral, Cycle 6) was “stable disease”. The “Tumor response according to the RANO criteria” value ([3]; PDGFRα 6× amplified, since assessment after Cycle 12 (48 weeks)) was “Partial Response”, the “Time on study with continued benefit” value ([3]; PDGFRα amplified, cycle 19) was > 17 months and the “PDGFRα D842V mutation allele frequency in plasma cfDNA” value ([4]; Cycle 3 Day 1 (8 weeks), not detected at baseline) was 0.59%. For the same molecule, the “PDGFRα D842V mutation allele frequency in plasma cfDNA” value ([4]; Cycle 5 Day 1 (16 weeks) and Cycle 7 Day 1 (24 weeks)) was “undetectable”, the Cmax ([5]; oral Compound A 150 mg BID) was 1500 ng/mL and the Cmax ([5]; oral Compound A 150 mg QD) was 861 ng/mL. For the same molecule, the “Compound A AUC12h (mean)” value ([5]; oral Compound A 150 mg QD) was 8,070 ng*h/mL.

Molecule `CCn1c(=O)c(-c2cc(NC(=O)Nc3ccccc3)c(F)cc2Br)cc2cnc(N)cc21` [Compound B, 1-(5-(7-amino-1-ethyl-2-oxo-1,2-dihydro-1,6-naphthyridin-3-yl)-4-bromo-2-fluorophenyl)-3-phenylurea] has an IC50 [6] of 5 nM, an IC50 [7] of 20 nM and an IC50 [8] of 26 nM. For the same molecule, the IC50 [9] was 0.018 nM, the IC50 [10] was 42 nM and the IC50 [11] was < 0.1 nM. The IC50 [12] was 6 nM.
